Data reported in publication PMC3100252, “A theoretical entropy score as a single value to express inhibitor selectivity” (BMC Bioinformatics, 2011).

Key:
222 human kinases = assay: Millipore kinase profiling (radioactive filter binding activity assay at [ATP] = KM,ATP) and selectivity metrics calculated from it; type: biochemical; design: selectivity score: scale not given here; conditions: for Ka-Gini score / Pmax / S10x / selectivity score: calculated from Millipore activity data; for selectivity entropy: calculated from Millipore activity data (pEC50), [ATP] = KM,ATP
From the text: As a next step we selected 16 compounds from the public profile (Ambit), and measured activity data on these using a different profiling service (Millipore, data available as Additional file 2). […] Also for these new data, we calculated the selectivity metrics (Uitdehaag_S2). In the ideal case, the selectivity values are similar irrespective of profiling technology (in the same way that a Kd value is ideally independent of laboratory and assay format). The data of both methods are plotted in Figure 2.
(§1) It is worth to note that the partition coefficient is the same as ϕl in our entropy equation (eq. 2).
The Gini score was calculated from data on %-inhibition. […] In addition, to work more directly with Kds, we also introduce a Ka-Gini score, in which association constants are used for rank-ordering the kinase profile. […] All calculations were done in Microsoft Excel.
For comparing profiles across methods (Figure 2), we selected 16 kinase inhibitors of the Ambit profile (Table 2) and submitted these to the kinase profiling service from Millipore (http://www.millipore.com/drugdiscovery/svp3/kpservices, data available as Additional file 2). Both profiling methods are described earlier and differ (among other variations) in the following way: Ambit uses a competitive binding setup in absence of ATP on kinases from T7 or HEK293 expression systems. Millipore uses a radioactive filter binding activity assay, with kinases purified from Escherichia coli or baculovirus expression systems.

[1] = system: 290 kinases (excluding mutants); type: binding; conditions: for Ka-Gini: Gini score calculated directly on Kas of the Ambit dataset (Kds of ref 5); for entropies (selectivity entropy, Ssel): calculated from Kds of the Ambit dataset (ref 5); for entropies (selectivity entropy, Ssel) / number of kinases inhibited below 3 μM: 290 kinases; for number of kinases inhibited below 3 μM: Ambit profile
From the text: Having defined the entropy, we next investigated its performance relative to the most widely-used methods, on a public profiling dataset of 38 inhibitors on 290 non-mutant kinases (Table 1 and Additional file 1). […] To this we added a Ka-Gini value and the selectivity entropy. The Ka-Gini is a Gini score directly calculated on Kas, without reverting to %-inhibition values (see below). […] In addition, to get an overview of the profiling raw data, we appended an activity-based heat map (Uitdehaag_S1).
as §1
The Gini score was calculated from data on %-inhibition. […] In addition, to work more directly with Kds, we also introduce a Ka-Gini score, in which association constants are used for rank-ordering the kinase profile. […] All calculations were done in Microsoft Excel. […]

[2] = system: 290 kinases (excluding mutants); conditions: Ambit dataset, values taken from earlier work, cited from earlier work; for Gini: 38 inhibitors on 290 non-mutant kinases; for S10x: fraction of kinases hit at 10 times the Kd of the target; for S3uM (selectivity score S(3 μM)): fraction of kinases hit below 3 μM
PDGFRβ = conditions: Ambit profiling raw data; cited from earlier work

Work on O=c1ncn2nc(Sc3ccc(F)cc3F)ccc2c1-c1c(Cl)cccc1Cl [VX-745] yielded a Ka-Gini score (222 human kinases) of 0.997, a Pmax (222 human kinases) of 0.820 and an S10x (222 human kinases) of 0.005. For the same molecule, the selectivity entropy (222 human kinases) was 0.590, the Ka-Gini [1] was 0.99 and the “entropies (selectivity entropy, Ssel)” value [1] was 0.28. For the same molecule, the Gini [2] was 0.51, the S10x [2] was 0.00 and the “S3uM (selectivity score S(3 μM))” value [2] was 0.03. For the same molecule, the “Pmax (partition index)” value [2] was 0.92.

Work on CNC(=O)c1cc(Oc2ccc(NC(=O)Nc3ccc(Cl)c(C(F)(F)F)c3)cc2)ccn1 [Sorafenib, sorafenib] yielded a Ka-Gini score (222 human kinases) of 0.975, a Pmax (222 human kinases) of 0.149 and an S10x (222 human kinases) of 0.029. The Ka-Gini [1] was 0.97, the Gini [2] was 0.82 and the S10x [2] was 0.10.

COc1cc2c(Nc3ccc(Br)cc3F)ncnc2cc1OCC1CCN(C)CC1 [ZD-6474, vandetanib] gave a Ka-Gini score (222 human kinases) of 0.963, a Pmax (222 human kinases) of 0.117 and an S10x (222 human kinases) of 0.041. For the same molecule, the “number of kinases inhibited below 3 μM” value [1] was 79 kinases, the Ka-Gini [1] was 0.94 and the Gini [2] was 0.79. For the same molecule, the S10x [2] was 0.26.

For Cc1[nH]c(/C=C2\C(=O)Nc3ccc(F)cc32)c(C)c1C(=O)NC[C@H](O)CN1CCOCC1 [SU-14813], the Kd (PDGFRβ) is listed as 290 pM, the Ka-Gini [1] is listed as 0.97 and the “entropies (selectivity entropy, Ssel)” value [1] is listed as 2.04. For the same molecule, the Gini [2] was 0.70, the S10x [2] was 0.02 and the “S3uM (selectivity score S(3 μM))” value [2] was 0.51. For the same molecule, the “Pmax (partition index)” value [2] was 0.18.

For Oc1cccc(-c2nc(N3CCOCC3)c3oc4ncccc4c3n2)c1 [PI-103], the Ka-Gini score (222 human kinases) was 0.995, the Pmax (222 human kinases) was 0.561 and the S10x (222 human kinases) was 0.005. It also gave a selectivity score (222 human kinases) of 0.014, a selectivity entropy (222 human kinases) of 0.876 and a Ka-Gini [1] of 0.99. The “entropies (selectivity entropy, Ssel)” value [1] was 0.05, the Gini [2] was 0.41 and the S10x [2] was 0.00. For the same molecule, the “Pmax (partition index)” value [2] was 0.97.

Work on Cc1ccc(-n2nc(C(C)(C)C)cc2NC(=O)Nc2ccc(OCCN3CCOCC3)c3ccccc23)cc1 [BIRB-796, doramapimod] yielded a Ka-Gini score (222 human kinases) of 0.984, a Pmax (222 human kinases) of 0.440 and an S10x (222 human kinases) of 0.011. The Ka-Gini [1] was 0.99 and the Gini [2] was 0.81.

With Cc1ccc(F)c(NC(=O)Nc2ccc(-c3cccc4[nH]nc(N)c34)cc2)c1 [ABT-869, linifanib] the Ka-Gini score (222 human kinases) was 0.968, the Pmax (222 human kinases) was 0.132 and the S10x (222 human kinases) was 0.025. The selectivity score (222 human kinases) was 0.235, the selectivity entropy (222 human kinases) was 2.834 and the Ka-Gini [1] was 0.98. The “entropies (selectivity entropy, Ssel)” value [1] was 1.93, the Gini [2] was 0.82 and the S10x [2] was 0.01. For the same molecule, the “S3uM (selectivity score S(3 μM))” value [2] was 0.16 and the “Pmax (partition index)” value [2] was 0.32.

With CCN(CC)CCNC(=O)c1c(C)[nH]c(/C=C2\C(=O)Nc3ccc(F)cc32)c1C [Sunitinib, sunitinib] the Pmax (222 human kinases) was 0.107, the S10x (222 human kinases) was 0.038 and the “number of kinases inhibited below 3 μM” value [1] was 181 kinases. The Gini [2] was 0.67 and the S10x [2] was 0.02.

In the case of O=C(O)c1ccc(Nc2ncc3c(n2)-c2ccc(Cl)cc2C(c2c(F)cccc2F)=NC3)cc1 [MLN-8054], the Ka-Gini score (222 human kinases) is reported as 0.980, the Pmax (222 human kinases) is reported as 0.617 and the S10x (222 human kinases) is reported as 0.002. For the same molecule, the selectivity score (222 human kinases) was 0.154, the selectivity entropy (222 human kinases) was 1.903 and the Ka-Gini [1] was 0.97. The “entropies (selectivity entropy, Ssel)” value [1] was 1.95, the Gini [2] was 0.75 and the S10x [2] was 0.01. The “S3uM (selectivity score S(3 μM))” value [2] was 0.13 and the “Pmax (partition index)” value [2] was 0.36.
